Our source for the MED values is patent publication US20140004243A1, “SALTY TASTE ENHANCER” (AJINOMOTO CO., INC., priority 2011, published 2014).

The target of this assay is T1, Human ENaC δ, β and γ subunit (Homo sapiens, UniProt P51168+P51170+P51172).
T1 construct: expressed in transfected cells; host or cells: Xenopus laevis (African clawed frog) oocytes injected with cRNA
T1 sequence (P51172 1-802): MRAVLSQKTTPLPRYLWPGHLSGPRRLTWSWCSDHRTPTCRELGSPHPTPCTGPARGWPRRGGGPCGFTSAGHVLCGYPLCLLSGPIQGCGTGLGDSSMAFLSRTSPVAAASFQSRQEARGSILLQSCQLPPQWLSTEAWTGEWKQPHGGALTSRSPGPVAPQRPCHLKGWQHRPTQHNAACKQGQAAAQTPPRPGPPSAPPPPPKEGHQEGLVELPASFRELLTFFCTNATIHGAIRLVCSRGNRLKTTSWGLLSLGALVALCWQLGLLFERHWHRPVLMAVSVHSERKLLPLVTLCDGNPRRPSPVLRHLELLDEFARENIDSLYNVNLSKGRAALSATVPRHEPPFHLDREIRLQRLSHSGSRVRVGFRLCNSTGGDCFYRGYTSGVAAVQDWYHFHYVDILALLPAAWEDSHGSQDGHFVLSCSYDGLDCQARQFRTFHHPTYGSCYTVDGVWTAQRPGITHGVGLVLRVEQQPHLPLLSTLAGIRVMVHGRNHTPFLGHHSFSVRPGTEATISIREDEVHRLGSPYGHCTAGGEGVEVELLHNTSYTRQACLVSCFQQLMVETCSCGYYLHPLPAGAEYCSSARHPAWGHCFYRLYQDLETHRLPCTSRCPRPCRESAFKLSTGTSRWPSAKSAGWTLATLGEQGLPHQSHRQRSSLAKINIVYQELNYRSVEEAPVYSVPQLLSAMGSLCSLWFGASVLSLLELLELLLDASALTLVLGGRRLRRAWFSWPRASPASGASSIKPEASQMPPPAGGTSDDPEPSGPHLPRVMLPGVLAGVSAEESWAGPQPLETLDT
T1 sequence (P51168 1-640): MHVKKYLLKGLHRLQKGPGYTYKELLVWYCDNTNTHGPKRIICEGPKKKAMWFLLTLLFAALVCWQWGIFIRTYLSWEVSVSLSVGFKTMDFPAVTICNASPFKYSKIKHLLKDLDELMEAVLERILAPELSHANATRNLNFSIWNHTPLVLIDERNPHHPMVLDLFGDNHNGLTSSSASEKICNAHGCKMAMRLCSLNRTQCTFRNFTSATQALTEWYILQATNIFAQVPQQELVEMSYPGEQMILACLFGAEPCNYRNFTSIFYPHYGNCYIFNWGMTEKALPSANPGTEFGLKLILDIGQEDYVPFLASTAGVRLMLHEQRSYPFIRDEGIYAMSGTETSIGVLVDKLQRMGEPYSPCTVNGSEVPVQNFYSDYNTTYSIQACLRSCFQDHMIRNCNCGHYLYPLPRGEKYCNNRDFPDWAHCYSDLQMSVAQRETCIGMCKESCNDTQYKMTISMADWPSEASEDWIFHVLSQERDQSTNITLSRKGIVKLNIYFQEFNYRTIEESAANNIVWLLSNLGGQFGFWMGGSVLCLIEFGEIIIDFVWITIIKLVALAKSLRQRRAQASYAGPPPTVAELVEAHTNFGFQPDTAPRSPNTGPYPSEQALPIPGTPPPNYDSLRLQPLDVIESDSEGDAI
T1 sequence (P51170 1-649): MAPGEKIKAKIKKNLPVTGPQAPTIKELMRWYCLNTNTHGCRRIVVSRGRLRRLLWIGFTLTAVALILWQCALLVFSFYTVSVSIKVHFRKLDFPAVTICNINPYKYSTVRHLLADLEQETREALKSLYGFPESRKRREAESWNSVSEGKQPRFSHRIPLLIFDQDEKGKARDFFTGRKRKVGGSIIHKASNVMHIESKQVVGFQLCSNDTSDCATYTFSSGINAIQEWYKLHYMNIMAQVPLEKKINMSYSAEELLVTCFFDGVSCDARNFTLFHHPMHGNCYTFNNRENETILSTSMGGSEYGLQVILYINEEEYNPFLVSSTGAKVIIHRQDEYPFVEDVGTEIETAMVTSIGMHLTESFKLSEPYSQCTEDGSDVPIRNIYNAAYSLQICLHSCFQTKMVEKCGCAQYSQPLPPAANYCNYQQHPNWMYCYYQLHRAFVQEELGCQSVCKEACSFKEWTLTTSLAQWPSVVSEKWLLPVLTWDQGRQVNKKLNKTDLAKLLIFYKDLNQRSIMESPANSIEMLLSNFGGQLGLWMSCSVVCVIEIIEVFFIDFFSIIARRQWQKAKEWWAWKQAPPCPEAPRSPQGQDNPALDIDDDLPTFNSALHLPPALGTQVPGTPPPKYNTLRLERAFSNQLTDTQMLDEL
Put plainly: Measurement of ENaC activation potency (MED) in ENaC-expressing oocyte, Two Electrode Voltage Clamp. The format is cell-based. Particulars: minimum effective dose at which current started to increase; ENaC-expressing African clawed frog oocyte; smaller MED = higher ENaC activation potency. An outline of the steps:
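Xenopus oocytes injected with human ENaC δ, β and γ cRNA, cultured 16–72 hr, voltage-clamped 30 mV below resting potential in ND96 (pH 7.6) by two-electrode voltage clamp. Compounds (0.1 nM–300 μM) perfused at rising concentrations every 3 min. MED = lowest dose raising current ≥10%, or raising 5 μM capsazepine-evoked current ≥25%, whichever smaller.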
In general terms: In two-electrode clamp one electrode senses voltage and the other passes current.
`Oc1cc2c(cc1O)CN(C(=S)NCCc1ccc(Cl)cc1)CCC2` [capsazepine] showed an MED of 3 µM.
With `C[C@@H](NC(=S)NCCc1ccccc1)c1ccccc1` [Example 11] the figure was 0.3 µM; with `OC[C@@H](NC(=S)NCCc1ccccc1)c1ccccc1` [Example 51], 0.3 µM.
